This series deals with normal adult male rats. The series is described as follows: 28-day treatment of normal adult male rats: organ weight and histology of the male reproductive tract, epididymal sperm properties. The settings on record: 2.5 mg/kg subcutaneously, 28 days. Format: in vivo. The protocol:
The above-described properties of antiestrogens were obtained in tests that were performed with the ICI-antiestrogen 7α-[9-(4,4,5,5,5-pentafluoropentylsulfinyl)-nonyl]-estra-1,3,5(10)-triene-3,17β-diol on normal adult male rats.
The test design and the results are described in the list below:
Observations regarding the organ weight of the male reproductive tract and sperm properties: […]

Turning to `C[C@]12CC[C@@H]3c4ccc(O)cc4C[C@@H](CCCCCCCCC[S+]([O-])CCCC(F)(F)C(F)(F)F)[C@H]3[C@@H]1CC[C@@H]2O` (stereo partly drawn) [7α-[9-(4,4,5,5,5-pentafluoropentylsulfinyl)-nonyl]-estra-1,3,5(10)-triene-3,17β-diol], where the note is “vs vehicle control”, the “histology of the organs studied (seminal vesicles, prostate, testicles, epididymis)” value is “No effects” and the “weight of the organs studied (seminal vesicles, prostate, testicles, epididymis)” value is recorded as “No effects”. Also, for the setting “epididymal sperm”, the “acrosomal state of sperm” value was “Induction of an early incipient acrosomal reaction” and the sperm motility result is “Inhibition of motility”.

Source of the values: patent publication US20010056086A1, “USE OF ANTI-OESTROGENS AS MALE CONTRACEPTIVES” (priority 1995, published 2001).
